For series [1] the following is noted: cited from earlier work.
In series [2] the target is human immunodeficiency virus-specified reverse transcriptase (Human immunodeficiency virus type 1 group M subtype B, UniProt P04585). The conditions noted are these: HIV reverse transcriptase; cited from earlier work.
The target in series [3] is cellular DNA polymerase alpha (Homo sapiens, UniProt P09884). Particulars: cited from earlier work.
In a further series the test system is microtubule assembly. The conditions noted are these: Bradley et al., Clin. Cancer Res. 2001; cited from earlier work.
A further series relates to HSV-1. In words: In vitro antiviral screening (selectivity index), HSV-1. It counts as cell-based, herpes simplex virus type 1.
A further series concerns HSV-2. In words: In vitro antiviral screening (selectivity index), HSV-2. The series is classed as cell-based, herpes simplex virus type 2.
The next series has as its system HCMV. In words: In vitro antiviral screening (selectivity index), HCMV. It counts as cell-based, herpes cytomegalovirus.
Another series has as its system VZV. In words: In vitro antiviral screening (selectivity index), VZV. It counts as cell-based, varicella-zoster virus.
Another series relates to BK (polyoma). It counts as cell-based, polyoma (BK) virus.
In another series the test system is Cowpox. The series is classed as cell-based.
The next series has as its system Vaccinia. It counts as cell-based.
A further series concerns Measles. In words: In vitro antiviral screening (selectivity index), Measles (NR assay). The series is classed as cell-based, measles virus.
The subject of a further series is Dengue. In words: In vitro antiviral screening (selectivity index), Dengue. It counts as cell-based.
Another series deals with Adeno. The series is classed as cell-based.
The subject of a further series is Yellow Fever. The series is classed as cell-based.
In a further series the test system is Punta Toro. The series is classed as cell-based.
For a further series, the system named is Flu A. It counts as cell-based.
The test system of another series is Flu B. The series is classed as cell-based.
Another series relates to SARS. The series is classed as cell-based.
A further series deals with Tacaribe. The series is classed as cell-based.
For another series, the system named is PIV. It counts as cell-based.
The test system of a further series is RSV A. In words: In vitro antiviral screening (selectivity index), RSV A. It counts as cell-based.
Another series has as its system RV 2. It counts as cell-based.
In a further series the test system is VEE. It counts as cell-based.
Another series has as its system Rift Valley Fever. The series is classed as cell-based.
The test system of another series is Pichinde. It counts as cell-based.
The next series has as its system HPV-11. In words: In vitro antiviral screening (selectivity index), HPV-11. The series is classed as cell-based. Particulars: human papillomavirus (HPV).

The source of these data is US20090111774A1, “PMEA LIPID CONJUGATES” (Luitpold Pharmaceuticals, Inc., priority 2007, published 2009).

SMILES strings stand for the structures. Values joined by “and” are separate entries in the source; they are usually repeats but may differ in a detail not shown here. Equal values may be shown once.

cellular DNA polymerase alpha, sequence (P09884 whole entry): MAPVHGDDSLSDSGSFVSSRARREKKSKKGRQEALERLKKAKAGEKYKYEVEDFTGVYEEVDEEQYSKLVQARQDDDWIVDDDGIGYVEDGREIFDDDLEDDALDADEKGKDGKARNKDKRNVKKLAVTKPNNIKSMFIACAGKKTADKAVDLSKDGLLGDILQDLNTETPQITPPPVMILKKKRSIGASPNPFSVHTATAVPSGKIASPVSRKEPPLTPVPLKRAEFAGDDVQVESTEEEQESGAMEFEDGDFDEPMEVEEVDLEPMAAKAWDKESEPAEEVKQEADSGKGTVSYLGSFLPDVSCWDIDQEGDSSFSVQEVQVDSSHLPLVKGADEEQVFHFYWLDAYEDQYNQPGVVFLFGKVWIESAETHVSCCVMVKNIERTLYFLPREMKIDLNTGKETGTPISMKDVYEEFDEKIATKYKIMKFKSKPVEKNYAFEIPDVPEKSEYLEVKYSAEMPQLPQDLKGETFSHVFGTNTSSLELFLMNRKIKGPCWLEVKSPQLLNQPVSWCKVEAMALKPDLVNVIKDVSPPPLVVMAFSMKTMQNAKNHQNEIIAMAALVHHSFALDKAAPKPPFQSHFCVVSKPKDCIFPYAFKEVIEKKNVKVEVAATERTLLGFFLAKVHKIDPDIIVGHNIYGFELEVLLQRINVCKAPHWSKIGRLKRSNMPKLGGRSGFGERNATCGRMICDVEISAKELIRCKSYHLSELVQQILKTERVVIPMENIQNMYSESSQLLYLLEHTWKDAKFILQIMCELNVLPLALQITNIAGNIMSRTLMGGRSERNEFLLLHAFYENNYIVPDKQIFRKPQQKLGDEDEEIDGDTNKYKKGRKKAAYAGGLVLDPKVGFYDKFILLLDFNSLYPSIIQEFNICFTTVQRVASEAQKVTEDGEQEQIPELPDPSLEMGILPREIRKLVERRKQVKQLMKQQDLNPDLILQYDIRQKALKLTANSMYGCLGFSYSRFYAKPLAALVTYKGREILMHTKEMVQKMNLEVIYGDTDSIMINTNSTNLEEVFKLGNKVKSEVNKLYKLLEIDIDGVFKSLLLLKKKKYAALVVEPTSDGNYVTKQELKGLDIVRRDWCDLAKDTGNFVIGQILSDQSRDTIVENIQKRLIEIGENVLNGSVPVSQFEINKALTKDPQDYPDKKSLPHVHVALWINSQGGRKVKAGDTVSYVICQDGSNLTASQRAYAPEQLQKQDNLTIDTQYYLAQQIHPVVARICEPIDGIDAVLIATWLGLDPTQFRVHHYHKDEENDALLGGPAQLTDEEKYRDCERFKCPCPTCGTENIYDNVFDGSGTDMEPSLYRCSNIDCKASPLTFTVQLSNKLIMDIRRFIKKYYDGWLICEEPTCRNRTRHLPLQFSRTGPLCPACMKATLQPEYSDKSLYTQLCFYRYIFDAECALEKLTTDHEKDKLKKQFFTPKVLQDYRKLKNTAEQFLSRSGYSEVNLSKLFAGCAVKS

Take `Nc1ncnc2c1ncn2CCOCP(=O)(O)OP(=O)(O)OP(=O)(O)O` [PMEApp]: the intracellular half-life in series [1] was 16 to 18 h. The Ki/Km was 0.01 in [2] and 0.60 in series [3].

As to `CC/C=C\C/C=C\C/C=C\C/C=C\C/C=C\C/C=C/CCC(=O)O[C@@H](C(=O)O[C@H]1C[C@@]2(O)[C@@H](OC(=O)c3ccccc3)C3[C@](C)(C(=O)[C@H](OC(C)=O)C(=C1C)C2(C)C)[C@@H](O)C[C@H]1OC[C@@]31OC(C)=O)[C@@H](NC(=O)c1ccccc1)c1ccccc1` (stereo partly drawn) [DHA-paclitaxel], in the series on microtubule assembly, the “activity as intact conjugate” value was “inactive as intact conjugates”.

With `CCCCCCCC/C=C\CCCCCCCC(=O)NC1=NC=NC2C1N=CN2CCOCP(=O)([O-])[O-].[Na+].[Na+]` (stereo not drawn) [Formula III, PMEA-oleyl amide], the “SI (selectivity index)” value in the series with HSV-1 (HSV-1 (1), first replicate) is reported as over 17.8; in the series with HSV-1 (HSV-1 (2), second replicate), over 143; in the series on HSV-2 (HSV-2 (1), first replicate), over 8.5; in the series on HSV-2 (HSV-2 (2), second replicate) it was 5.7; in the series on HCMV, 1; with BK (polyoma), over 213. The “SI (selectivity index)” value in the series with Cowpox is 1; in the series with Vaccinia, 1 and >2; in the series with Measles (Measles (NR assay)) it was over 20; with Dengue, 1; in the series on Adeno, 1; in the series on Yellow Fever, 1. Besides, the “SI (selectivity index)” value with Punta Toro is 1; in the series with Flu A it was 1; in the series on Flu B, 1; in the series with SARS, 1; in the series on Tacaribe it was 2; in the series with PIV it was 1. Moreover, the “SI (selectivity index)” value in the series with RSV A, in the series with RV 2, in the series with VEE, with Rift Valley Fever and in the series with Pichinde was 1 throughout. Besides, the “antiviral activity / sensitivity of virus” value in the series on HSV-1 (HSV-1, in vitro) is given as “sensitive only to the compound of Formula III”; with HSV-2 (HSV-2, in vitro), “sensitive only to the compound of Formula III”; in the series with VZV, “sensitive”; in the series with BK (polyoma) it was “sensitive”; with Measles (measles virus, in vitro), “sensitive only to the compound of Formula III”; with HPV-11 it was “sensitive only to the compound of Formula III”.
